Source: patent US20110104159A1, “COMPOSITIONS AND METHODS FOR TREATING, CONTROLLING, REDUCING, AMELIORATING, OR PREVENTING ALLERGY” (priority 2006, published 2011)
“And” between values parts separate entries of the source, which are not always exact repeats. Identical values can stand only once.

Tests used:
MPO = experiment: Myeloperoxidase (MPO) activity in iris-ciliary body; type: in vivo, Rabbit; conditions: for Mean MPO Unit/g (MPO activity in iris-ciliary body samples): group mean, after the second paracentesis; for MPO Unit/g (raw data of MPO activity in iris-ciliary body samples): individual eyes (DX/SX) of rabbits, samples collected after the second paracentesis
Procedure: 2.3.2.1 Phosphate Buffer (50 mM; pH=6)
3.9 g of NaH2PO4 2H2O were dissolved in a volumetric flask to 500 ml with water. The pH was adjusted to pH=6 with 3N NaOH.
0.5 g of hexa-decyl-trimethyl-ammonium bromide was dissolved in 100 ml phosphate buffer.
The solution was prepared freshly. Ten microliters of H2O2 (30 wt. %) were diluted to 1 ml with water (solution A). 7.5 mg o-dianisidine 2HCl were dissolved in 45 ml of phosphate buffer and 75 μl of solution A were added.
(§1) Each rabbit was placed in a restraint device and tagged with the alphanumeric code. The formulations were instilled (50 μl) into the conjunctival sac of both eyes 180, 120, 90 and 30 min before the first paracentesis; then 15, 30, 90 min after the first paracentesis. To perform the first paracentesis the animals were anaesthetized by intravenous injection of 5 mg/kg Zoletil® (Virbac; 2.5 mg/kg tiletamine HCl and 2.5 mg/kg zolazepam HCl) and one drop of local anesthetic (Novesina®, Novartis) was administered to the eye. Anterior chamber paracentesis was performed with a 26 G needle attached to a tuberculin syringe; the needle was introduced into the anterior chamber through the cornea, taking care not to damage the tissues. Two hours after the first paracentesis, the animals were sacrificed with 0.4 ml Tanax® (Intervet International B.V.) and the second paracentesis was performed. About 100 μl of aqueous humor were removed at the second paracentesis. Aqueous humor was immediately split in four aliquots and stored at −80° C. until analysis. Then both eyes were enucleated and the iris-ciliary body was carefully excised, placed in polypropylene tubes, and stored at −80° C. until analysis.
The activity of MPO was measured as previously described by Williams et al. The iris-ciliary bodies were carefully dried, weighed and immersed in 1 ml of hexa-decyl-trimethyl-ammonium bromide solution. Then, the samples were sonicated for 10 sec on ice by a ultrasound homogenizer (HD 2070, Bandelin electronic), freeze-thawed three times, sonicated for 10 sec and centrifuged at 14,000 g for 10 min to remove cellular debris. An aliquot of the supernatant (40-200 μl) was diluted to 3 ml with the o-dianisidine 2HCl/H2O2 solution. The change in absorbance at 460 nm was continuously monitored for 5 min by a spectrophotometer (UV/Vis Spectrometer Lambda EZ 201; Perkin Elmer). The slope of the line (Δ/min) was determined for each sample and used to calculate the number of units of MPO in the tissue as follows:
where ε=11.3 mM^−1. Values were expressed as units of MPO/g of tissue.

PGE2 = experiment: Prostaglandin E2 (PGE2) measurement in aqueous humor; type: in vivo, Rabbit; conditions: for PGE2 in aqueous humor at the second paracentesis, Mean: group mean; for PGE2 in aqueous humor at the second paracentesis: individual eye sample
Procedure: as §1
For the quantitative determination of PGE2 in the aqueous humor we used the PGE2 Immunoassay kit (R&D Systems; Cat. No. KGE004; Lot. No. 240010). Eleven microliters or 16 μl of aqueous humor were diluted to 110 μl or 160 μl with the calibrator diluent solution provided with the kit. One hundred microliters of samples and of standards were load into a 96-well plate and recorded in a plate layout. Samples were treated following the assay procedure described in the kit. A microplate reader (GDV, Italy; model DV 990 B/V6) set at 450 nm (wavelength correction at 540 nm) was used for making the calibration and analyzing the samples.

[1] = test system: protein concentration in the aqueous humor; experiment: Protein measurement in aqueous humor; type: in vivo, Rabbit; conditions: for Protein in aqueous humor at the second paracentesis, Mean: group mean; for Protein in aqueous humor at the second paracentesis: individual eye sample
Procedure: as §1
For protein concentration determination in the aqueous humor we used the Protein Quantification Kit (Fluka; Cat. No. 77371; Lot. No. 1303129). Five microliters of aqueous humor were diluted to 100 μl with water. Twenty microliters of samples and of standards were load into a 96-well plate and recorded in a plate layout. Samples were treated following the assay procedure described in the kit. A microplate reader (GDV, Italy; model DV 990 B/V6) set at 670 nm was used for making the calibration and analyzing the samples.

[2] = test system: rabbit paracentesis model; experiment: Clinical evaluation by slit lamp (clinical score), rabbit paracentesis model; type: in vivo; design: key to Clinical Score −180 min / Clinical Score −5 min / Clinical Score +115 min: 0: normal; 1: discrete dilatation of iris and conjunctival vessels; 2: moderate dilatation of iris and conjunctival vessels; 3: intense iridal hyperemia with flare in the anterior chamber; 4: intense iridal hyperemia with flare in the anterior chamber and presence of fibrinous exudates; conditions: for Clinical Score −5 min: 5 min before first paracentesis; for Clinical Score −5 min / Clinical Score +115 min / Clinical Score −180 min: individual eye, scale 0-4; for Clinical Score +115 min: 5 min before second paracentesis; for Clinical Score −180 min: basal
leukocytes (PMN) = experiment: Leukocytes (PMN) measurement in aqueous humor; type: in vivo, Rabbit; conditions: for PMN in aqueous humor at the second paracentesis, Mean: group mean; for PMN in aqueous humor at the second paracentesis: individual eye sample
Procedure: as §1
For the determination of the number of leukocytes we used a haemocytometer (Improved Neubauer Chamber; Brigth-line, Hausser Scientific) and a Polyvar 2 microscope (Reichert-Jung).

[3] = test system: rabbit paracentesis model; experiment: Pupillary diameter measurement, rabbit paracentesis model; type: in vivo; conditions: individual eye; for Pupillary diameter T2: −5 min: 5 min before first paracentesis; for Pupillary diameter T3: +115 min: 5 min before second paracentesis; for Pupillary diameter Δ(T3 − T1): +115 min minus −180 min; for Pupillary diameter T1: −180 min: basal
Procedure: as §1
The pupillary diameter of both eyes was measured with a Castroviejo caliper 180 min and 5 min before the first paracentesis and 5 min before the second paracentesis.

## C[C@@H]1C[C@H]2[C@@H]3CCC4=CC(=O)C=C[C@]4(C)[C@@]3(F)[C@@H](O)C[C@]2(C)[C@@]1(O)C(=O)CO [Dex, Dexamethasone, reference compound]
MPO; 0.1% treatment
  Mean MPO Unit/g (MPO activity in iris-ciliary body samples): 0.618 Unit/g
  MPO Unit/g (raw data of MPO activity in iris-ciliary body samples): 0.71 Unit/g and 0.60 Unit/g and 1.32 Unit/g and 0.48 Unit/g (2×) and 0.39 Unit/g and 0.45 Unit/g and 0.51 Unit/g
PGE2; 0.1% topical
  PGE2 in aqueous humor at the second paracentesis, Mean: 2.263 ng/mL
  PGE2 in aqueous humor at the second paracentesis: 2.51 ng/ml and 2.32 ng/ml (2×) and 2.10 ng/ml and 3.03 ng/ml and 1.30 ng/ml
[1]; 0.1% topical
  Protein in aqueous humor at the second paracentesis, Mean: 33.457 mg/mL
  Protein in aqueous humor at the second paracentesis: 31.31 mg/mL and 31.81 mg/mL and 35.95 mg/mL and 37.15 mg/mL and 32.12 mg/mL and 32.40 mg/mL
[2]; 0.1% topical
  Clinical Score −5 min: 0 (6×) and 1 (2×)
  Clinical Score +115 min: 1 (6×) and 3 (2×)
  Clinical Score −180 min: 0
[2]; 0.1% topical, +115 min, 8 eyes
  Percentage of eyes with clinical score 1: 75%
  Percentage of eyes with clinical score 3: 25%
[2]; 0.1% topical, −5 min, 8 eyes
  Percentage of eyes with clinical score 0: 75%
  Percentage of eyes with clinical score 1: 25%
[2]; 0.1% topical, −180 min, 8 eyes
  Percentage of eyes with clinical score 0: 100%
Leukocytes (PMN); 0.1% topical
  PMN in aqueous humor at the second paracentesis, Mean: 30.000 number/μl
  PMN in aqueous humor at the second paracentesis: 20 number/μl (3×) and 50 number/μl and 40 number/μl and 30 number/μl
[3]; 0.1% topical
  Pupillary diameter T2: −5 min: 5.5 mm and 6.5 mm (3×) and 6.0 mm (2×) and 7.0 mm and 7.5 mm
  Pupillary diameter T3: +115 min: 5.5 mm (3×) and 6.0 mm (2×) and 4.5 mm and 5.0 mm and 6.5 mm
  Pupillary diameter Δ(T3 − T1): −0.5 mm (3×) and −1.5 mm (2×) and 0.5 mm and 0.0 mm and −2.0 mm
  Pupillary diameter T1: −180 min: 6.0 mm and 7.0 mm (2×) and 5.5 mm (2×) and 6.5 mm (3×)

## CC(C(=O)O)c1ccc(-c2ccccc2)c(F)c1 (centres unmarked) [F, flurbiprofen, reference compound]
MPO; 0.03% topical, p<0.01
  MPO activity in iris-ciliary body, statistical comparison with CTR: statistical significance
MPO; 0.03% treatment
  Mean MPO Unit/g (MPO activity in iris-ciliary body samples): 0.906 Unit/g
  MPO Unit/g (raw data of MPO activity in iris-ciliary body samples): 1.10 Unit/g and 1.70 Unit/g and 0.34 Unit/g and 0.75 Unit/g and 0.74 Unit/g and 0.63 Unit/g and 0.73 Unit/g and 1.27 Unit/g
PGE2; 0.03% topical
  PGE2 in aqueous humor at the second paracentesis, Mean: 1.189 ng/mL
  PGE2 in aqueous humor at the second paracentesis: 1.04 ng/ml and 0.75 ng/ml and 0.85 ng/ml and 1.11 ng/ml and 2.11 ng/ml (2×) and 0.93 ng/ml and 0.61 ng/ml
PGE2; 0.03% topical, p<0.05
  PGE2 in aqueous humor, statistical comparison with CTR: statistically significant versus CTR
[1]; 0.03% topical
  Protein in aqueous humor at the second paracentesis, Mean: 20.910 mg/mL
  Protein in aqueous humor at the second paracentesis: 20.78 mg/mL and 28.80 mg/mL and 23.41 mg/mL and 20.21 mg/mL and 17.53 mg/mL and 15.12 mg/mL and 20.52 mg/mL
[1]; 0.03% topical, p<0.001
  Protein in aqueous humor, statistical comparison with CTR: statistical significance
[2]; 0.03% topical
  Clinical Score −5 min: 0
  Clinical Score +115 min: 2
  Clinical Score −180 min: 0
[2]; 0.03% topical, +115 min, 8 eyes
  Percentage of eyes with clinical score 2: 100%
[2]; 0.03% topical, −5 min, 8 eyes
  Percentage of eyes with clinical score 0: 100%
[2]; 0.03% topical, −180 min, 8 eyes
  Percentage of eyes with clinical score 0: 100%
Leukocytes (PMN); 0.03% topical
  PMN in aqueous humor at the second paracentesis, Mean: 30.000 number/μl
  PMN in aqueous humor at the second paracentesis: 50 number/μl and 40 number/μl (2×) and 20 number/μl (2×) and 10 number/μl and 30 number/μl
[3]; 0.03% topical
  Pupillary diameter T2: −5 min: 6.0 mm (3×) and 6.5 mm (3×) and 7.0 mm and 5.5 mm
  Pupillary diameter T3: +115 min: 4.0 mm and 3.5 mm and 5.5 mm (2×) and 5.0 mm (2×) and 4.5 mm and 6.0 mm
  Pupillary diameter Δ(T3 − T1): −1.0 mm (3×) and −1.5 mm (3×) and 0.0 mm (2×)
  Pupillary diameter T1: −180 min: 5.0 mm (2×) and 7.0 mm and 6.0 mm (4×) and 5.5 mm
